Values of other authors, collected in patent US9321030B2, “Clay-containing thin films as carriers of absorbed molecules” (priority 2012, dated 2016).

Tests used:
[1] = test system: multi-drug resistant strains of gram-positive and gram-negative bacteria; conditions: clinically relevant multi-drug resistant strains
[2] = test system: Pseudomonas aeruginosa biofilms
[3] = test system: Mycobacterium tuberculosis
S. aureus ATCC 12600 = conditions: known value

| Substance | efficacy against planktonic cells [1] | activity against biofilms [2] | activity [3] | minimum inhibitory concentration (S. aureus ATCC 12600) [µg/mL] |
| --- | --- | --- | --- | --- |
| H—(NLys-Nspe-Nspe)4-NH2 [Peptoid 1] | demonstrated efficacy | active | active |  |
| gentamicin |  |  |  | 1 |
